Results published in patent US20220125765A1, “PHARMACEUTICAL COMBINATIONS COMPRISING MEBENDAZOLE AND A STRONG OR MODERATE CYP1A2 INHIBITOR” (ZEPHAPHARM LTD, priority 2019, published 2022).
Read-outs that look alike come from different tables or passages of the source.

Columns and labels:
[1] = target: T1, CYP1A2 (Homo sapiens, UniProt P05177); assay: Cytochrome P450 reaction phenotyping, recombinant CYP1A2 (Bactosomes); conditions: for Compound Remaining (% of 0 min): CYP1A2, 5 μM
T1 sequence (P05177 1-516): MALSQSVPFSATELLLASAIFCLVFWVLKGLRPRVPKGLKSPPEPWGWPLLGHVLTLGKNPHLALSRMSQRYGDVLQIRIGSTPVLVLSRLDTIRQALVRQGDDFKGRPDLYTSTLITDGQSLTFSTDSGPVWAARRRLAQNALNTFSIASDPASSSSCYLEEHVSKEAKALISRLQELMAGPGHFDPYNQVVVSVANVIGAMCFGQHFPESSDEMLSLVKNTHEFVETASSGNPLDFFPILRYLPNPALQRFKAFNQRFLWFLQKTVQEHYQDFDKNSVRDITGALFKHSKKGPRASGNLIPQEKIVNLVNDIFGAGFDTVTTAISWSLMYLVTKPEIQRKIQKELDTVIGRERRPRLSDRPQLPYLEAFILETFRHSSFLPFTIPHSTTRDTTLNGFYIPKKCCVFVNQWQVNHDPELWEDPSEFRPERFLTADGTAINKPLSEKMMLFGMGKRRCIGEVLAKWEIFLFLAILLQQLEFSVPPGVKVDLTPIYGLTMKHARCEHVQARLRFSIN
Method: (§1) Incubations were also performed using control Bactosomes™ (no P450 enzymes present) to reveal any non-enzymatic degradation. Control compounds known to be metabolised specifically by each P450 isoform were included. All incubations were performed singularly for each test compound.
(§2) Incubations were also performed using control Bactosomes™ (no P450 enzymes present) to reveal any non-enzymatic degradation. Control compounds known to be metabolised specifically by each P450 isoform were included. All incubations were performed singularly for each test compound. […] The reactions were stopped by transferring an aliquot of incubate to quench solvent at the appropriate time points, in a 1:3 ratio. The termination plates were centrifuged at 3,000 rpm for 20 min at 4° C. to precipitate the protein.

[2] = tested on: NBXF CHP-212; assay: 2D monolayer CellTiter-Blue viability, neuroblastoma CHP-212; format: cell-based; conditions: 72 h
Method: (§3) Seventeen compounds, including mebendazole (Batch no. […] Efficacy of compounds was assessed using CellTiter-Blue® Cell Viability Assay. Anti-tumor activity is expressed as absolute and relative IC50 and IC70 values, calculated by non-linear regression analysis.

[3] = Stability in human liver microsomes without and with cimetidine or furafylline (Example 4); format: in vitro ADME; conditions: human, liver microsomes, substrate 1 μM
Method: A minus cofactor control incubation was included for each compound tested where 0.1 M phosphate buffer pH 7.4 was added instead of NADPH (minus NADPH). […] The samples were analysed for mebendazole or phenacetin using LC-MS/MS.
A minus cofactor control incubation was included for each compound tested where 0.1 M phosphate buffer pH 7.4 was added instead of cofactor (minus NADPH). […] The samples were analysed for mebendazole or phenacetin using LC-MS/MS.

[4] = tested on: OVCAR-5; assay: 2D monolayer CellTiter-Blue viability, ovarian cancer OVCAR-5; format: cell-based; conditions: for IC50: Homo sapiens; for Test/Control (%) at Drug Concentration: 72 h
Method: Mebendazole was tested in vitro across a panel of 12 tumor cell lines of ovarian and renal cancer by using a 2D monolayer assay. […] OVXF 899L and RXF 486L are P-gp expressing, multidrug resistant cell lines.
Anti-tumor activity is expressed as absolute and relative IC50/70 values, calculated by 4-parameter non-linear curve fit.

[5] = target: CYP3A4 (Homo sapiens, UniProt P08684); assay: Cytochrome P450 reaction phenotyping, recombinant CYP3A4 (Bactosomes)
Sequence of CYP3A4 (P08684 whole entry): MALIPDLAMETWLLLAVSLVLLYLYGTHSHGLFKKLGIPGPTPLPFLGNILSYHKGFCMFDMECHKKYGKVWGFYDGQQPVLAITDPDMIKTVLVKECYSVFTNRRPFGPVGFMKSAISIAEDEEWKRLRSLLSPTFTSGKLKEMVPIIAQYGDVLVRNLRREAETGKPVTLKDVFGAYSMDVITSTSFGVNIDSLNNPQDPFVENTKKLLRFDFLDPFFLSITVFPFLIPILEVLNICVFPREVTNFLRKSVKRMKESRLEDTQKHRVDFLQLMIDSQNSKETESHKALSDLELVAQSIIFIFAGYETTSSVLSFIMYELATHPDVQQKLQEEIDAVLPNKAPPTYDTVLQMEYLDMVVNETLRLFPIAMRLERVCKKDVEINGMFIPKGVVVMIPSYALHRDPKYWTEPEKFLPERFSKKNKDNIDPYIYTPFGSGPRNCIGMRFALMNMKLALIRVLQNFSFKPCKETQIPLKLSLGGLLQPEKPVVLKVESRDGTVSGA
Method: as §1, §2

[6] = tested on: SXFS RH-30; assay: 2D monolayer CellTiter-Blue viability, soft tissue sarcoma RH-30; format: cell-based; conditions: 72 h
Method: as §3

[7] = tested on: SXFO Saos-2; assay: 2D monolayer CellTiter-Blue viability, osteosarcoma Saos-2; format: cell-based; conditions: 72 h
Method: as §3

[8] = tested on: SXFO U-2-OS; assay: 2D monolayer CellTiter-Blue viability, osteosarcoma U-2-OS; format: cell-based; conditions: 72 h
Method: as §3

[9] = pH 7.4, with cimetidine 30 μM, plus 30 μM cimetidine
[10] = pH 7.4, with cimetidine 100 μM, plus 100 μM cimetidine
[11] = pH 7.4, with cimetidine 300 μM, plus 300 μM cimetidine

## COC(=O)Nc1nc2ccc(C(=O)c3ccccc3)cc2[nH]1 [Mebendazole, methyl N-(6-benzoyl-1H-benzimidazol-2-yl)carbamate]
[1]; 0 min
  Compound Remaining (% of 0 min): 100 % of 0 min
[1]; 5 min
  Compound Remaining (% of 0 min): 80.1 % of 0 min
[1]; 15 min
  Compound Remaining (% of 0 min): 45.8 % of 0 min
[1]; 30 min
  Compound Remaining (% of 0 min): 20.7 % of 0 min
[1]; 45 min
  Compound Remaining (% of 0 min): 9.88 % of 0 min
[1]; human, recombinant CYP1A2 (Bactosomes), pH 7.4
  half-life at 5 μM: 0.222 h
[2]; CHP-212, 1.0E+00 μM
  Test/Control (%) at Drug Concentration: 14%
[2]; CHP-212, 1.0E+01 μM
  Test/Control (%) at Drug Concentration: 23%
[2]; CHP-212, 1.0E+02 μM
  Test/Control (%) at Drug Concentration: 19%
[2]; CHP-212, 1.0E−01 μM
  Test/Control (%) at Drug Concentration: 59%
[2]; CHP-212, 1.0E−02 μM
  Test/Control (%) at Drug Concentration: 98%
[2]; CHP-212, 3.2E+00 μM
  Test/Control (%) at Drug Concentration: 20%
[2]; CHP-212, 3.2E+01 μM
  Test/Control (%) at Drug Concentration: 27%
[2]; CHP-212, 3.2E−01 μM
  Test/Control (%) at Drug Concentration: 19%
[2]; CHP-212, 3.2E−02 μM
  Test/Control (%) at Drug Concentration: 88%
[2]; CHP-212, 3.2E−03 μM
  Test/Control (%) at Drug Concentration: 95%
[3]; [9]
  half-life at 1 μM: 1.28 h
  microsomal CLint at 1 μM: 18 µL/min/mg
[3]; [10]
  half-life at 1 μM: 1.3 h
  microsomal CLint at 1 μM: 17.8 µL/min/mg
[3]; [11]
  half-life at 1 μM: 1.54 h
  microsomal CLint at 1 μM: 15 µL/min/mg
[3]; pH 7.4, with furafylline 3 μM, plus 3 μM furafylline
  microsomal CLint at 1 μM: 2.84 µL/min/mg
[3]; pH 7.4, with furafylline 10 μM, plus 10 μM furafylline
  microsomal CLint at 1 μM: 0.232 µL/min/mg
[3]; pH 7.4, with furafylline 30 μM, plus 30 μM furafylline
  microsomal CLint at 1 μM: 0.336 µL/min/mg
[3]; pH 7.4, no inhibitor
  half-life at 1 μM: 1.04 h
  microsomal CLint at 1 μM: 22.2 µL/min/mg
[4]; OVCAR-5, 72 h, read-out: Abs. IC50
  IC50: 865 nM
[4]; OVCAR-5, 72 h, read-out: Rel. IC50
  IC50: 732 nM
[4]; OVCAR-5, 1.0E+00 μM
  Test/Control (%) at Drug Concentration: 42%
[4]; OVCAR-5, 1.0E−01 μM
  Test/Control (%) at Drug Concentration: 90%
[4]; OVCAR-5, 1.0E−02 μM
  Test/Control (%) at Drug Concentration: 102%
[4]; OVCAR-5, 1.0E−03 μM
  Test/Control (%) at Drug Concentration: 103%
[4]; OVCAR-5, 1.0E−04 μM
  Test/Control (%) at Drug Concentration: 102%
[4]; OVCAR-5, 3.2E+00 μM
  Test/Control (%) at Drug Concentration: 22%
[4]; OVCAR-5, 3.2E−01 μM
  Test/Control (%) at Drug Concentration: 91%
[4]; OVCAR-5, 3.2E−02 μM
  Test/Control (%) at Drug Concentration: 95%
[4]; OVCAR-5, 3.2E−03 μM
  Test/Control (%) at Drug Concentration: 92%
[4]; OVCAR-5, 3.2E−04 μM
  Test/Control (%) at Drug Concentration: 96%
[4]; OVCAR-5, 72 h
  Abs. IC70: 1480 nM
  Rel. IC70: 995 nM
[4]; OVCAR-5, 72 h, curve fit
  Bot. (%): 20%
  Top (%): 97%
[5]; CYP3A4, 5 μM, 0 min
  Compound Remaining (% of 0 min): 100 % of 0 min
[5]; CYP3A4, 5 μM, 5 min
  Compound Remaining (% of 0 min): 95.1 % of 0 min
[5]; CYP3A4, 5 μM, 15 min
  Compound Remaining (% of 0 min): 85.4 % of 0 min
[5]; CYP3A4, 5 μM, 30 min
  Compound Remaining (% of 0 min): 105 % of 0 min
[5]; CYP3A4, 5 μM, 45 min
  Compound Remaining (% of 0 min): 104 % of 0 min
[5]; CYP3A4, 5 μM, time not stated
  % compound remaining: > 87.5%
[5]; CYP3A4, substrate 5 μM
  t1/2: >2.25 h
[5]; human, recombinant CYP3A4 (Bactosomes), pH 7.4
  half-life at 5 μM: > 2.25 h
[6]; RH-30, 1.0E+00 μM
  Test/Control (%) at Drug Concentration: 19%
[6]; RH-30, 1.0E+01 μM
  Test/Control (%) at Drug Concentration: 20%
[6]; RH-30, 1.0E+02 μM
  Test/Control (%) at Drug Concentration: 5%
[6]; RH-30, 1.0E−01 μM
  Test/Control (%) at Drug Concentration: 89%
[6]; RH-30, 1.0E−02 μM
  Test/Control (%) at Drug Concentration: 104%
[6]; RH-30, 3.2E+00 μM
  Test/Control (%) at Drug Concentration: 21%
[6]; RH-30, 3.2E+01 μM
  Test/Control (%) at Drug Concentration: 13%
[6]; RH-30, 3.2E−01 μM
  Test/Control (%) at Drug Concentration: 20%
[6]; RH-30, 3.2E−02 μM
  Test/Control (%) at Drug Concentration: 95%
[6]; RH-30, 3.2E−03 μM
  Test/Control (%) at Drug Concentration: 111%
[7]; Saos-2, 1.0E+00 μM
  Test/Control (%) at Drug Concentration: 19%
[7]; Saos-2, 1.0E+01 μM
  Test/Control (%) at Drug Concentration: 11%
[7]; Saos-2, 1.0E+02 μM
  Test/Control (%) at Drug Concentration: 6%
[7]; Saos-2, 1.0E−01 μM
  Test/Control (%) at Drug Concentration: 73%
[7]; Saos-2, 1.0E−02 μM
  Test/Control (%) at Drug Concentration: 74%
[7]; Saos-2, 3.2E+00 μM
  Test/Control (%) at Drug Concentration: 20%
[7]; Saos-2, 3.2E+01 μM
  Test/Control (%) at Drug Concentration: 12%
[7]; Saos-2, 3.2E−01 μM
  Test/Control (%) at Drug Concentration: 29%
[7]; Saos-2, 3.2E−02 μM
  Test/Control (%) at Drug Concentration: 73%
[7]; Saos-2, 3.2E−03 μM
  Test/Control (%) at Drug Concentration: 77%
[8]; 1.0E+00 μM
  Test/Control (%) at Drug Concentration: 38%
[8]; 1.0E+01 μM
  Test/Control (%) at Drug Concentration: 13%
[8]; 1.0E+02 μM
  Test/Control (%) at Drug Concentration: 6%
[8]; 1.0E−01 μM
  Test/Control (%) at Drug Concentration: 82%
[8]; 1.0E−02 μM
  Test/Control (%) at Drug Concentration: 89%
[8]; 3.2E+00 μM
  Test/Control (%) at Drug Concentration: 19%
[8]; 3.2E+01 μM
  Test/Control (%) at Drug Concentration: 11%
[8]; 3.2E−01 μM
  Test/Control (%) at Drug Concentration: 54%
[8]; 3.2E−02 μM
  Test/Control (%) at Drug Concentration: 86%
[8]; 3.2E−03 μM
  Test/Control (%) at Drug Concentration: 85%
